# Values quoted from earlier work, collected in publication PMC3470887, “Protegrin-1 Inhibits Dengue NS2B-NS3 Serine Protease and Viral Replication in MK2 Cells” (Journal of Biomedicine and Biotechnology, 2012).
# Settings: mouse, iv; cited from earlier work
smiles,measurement,value
CC(C)C[C@H](NC(=O)[C@H](CCCNC(=N)N)NC(=O)CNC(=O)CNC(=O)[C@@H](N)CCCNC(=N)N)C(=O)N[C@H]1CSSC[C@@H](C(=O)N[C@H](C(=O)NCC(=O)N[C@@H](CCCNC(=N)N)C(N)=O)C(C)C)NC(=O)[C@H](C(C)C)NC(=O)[C@@H]2CSSC[C@H](NC(=O)[C@H](Cc3ccc(O)cc3)NC1=O)C(=O)N[C@@H](CCCNC(=N)N)C(=O)N[C@@H](CCCNC(=N)N)C(=O)N[C@@H](CCCNC(=N)N)C(=O)N[C@@H](Cc1ccccc1)C(=O)N2 [PG-1],dose with low in vivo toxicity,up to 8 mg/kg
